The subject of one data set is Frings mouse. The experiment in a line: Rotarod motor impairment (toxicity) in the Frings mouse. Format: in vivo. Conditions: for Number Showing Toxicity of Eight Mice Tested at 30 minutes / Number Showing Toxicity of Eight Mice Tested at 120 minutes: Table 5; for Number Showing Toxicity of Four Mice Tested at 30 minutes / Number Showing Toxicity of Four Mice Tested at 120 minutes: Table 4. The procedure:
(§1) The average seizure score can be calculated for each group of mice employed in the dose-response study. At each dose, mice are also tested on a rotarod for testing of motor impairment (toxicity). Testing for motor impairment on the rotarod involves placing a mouse for a three-minute trial period on a one-inch diameter rod rotating at six revolutions per minute. If the mouse falls off of the rotating rod three times within the three-minute time period, it is considered a toxic response.
On the technique in general: Falling from the rotarod earlier than controls is read as motor impairment.

The test system of data set [1] is Frings audiogenic seizure-susceptible mouse. The experiment in a line: Frings audiogenic seizure-susceptible mouse model of epilepsy. Conditions: for anticonvulsant activity when administered orally: oral. Format: in vivo.
Text: One useful model is provided by the Frings audiogenic seizure-susceptible mouse, a model of reflex epilepsy. At the time of testing, individual mice are placed into a round Plexiglas chamber and exposed to a sound stimulus of 110 decibels, 11 kHz, for 20 seconds. Animals not displaying tonic hindlimb extensions were considered protected. In addition, the seizure score for each mouse can be recorded as: (1) running for less than 10 seconds; (2) running for greater than 10 seconds; (3) clonic activity of limbs and/or vibrissae; (4) forelimb extension/hindlimb flexion; and (5) hindlimb extension.
as §1

The next data set deals with rat. As to the kind of experiment: Rotarod Test in the Rat. Format: in vivo. Conditions: for Number of Rats Falling: ten rats per group. The procedure:
This is a test of neurological deficits using the method described by Dunham et al., J. Am. Pharm. Assoc. 46: 208-09 (1957). Rats or mice are placed on a rod rotating at a speed of eight turns per minute. The number of animals which drop off the rod before three minutes is counted and the drop-off times are recorded (maximum: 180 seconds). Ten rats are studied per group and the test is performed blind. The test compound is administered i.p. 60 minutes prior to testing. Diazepam, a benzodiazepine, is administered at 8 mg/kg, i.p., as the reference substance. A control group administered the vehicle is also included in the study.

For data set [2] the following is noted: reported in the literature; cited from earlier work.
The conditions of data set [3]: in vivo; cited from earlier work.
Setting [4] is: 4 mg/kg i.p. 60 minutes before test.
Setting [5] is: 8 mg/kg i.p. 60 minutes before test.

Marks after values point to notes of the source that are not given here.

`CC(C)C(C)C(N)=O` (stereo not shown) [2-methylisovaleramide]: the “Number Showing Toxicity of Eight Mice Tested at 30 minutes” value in the data set with Frings mouse (30 mg/kg oral) was 0; with Frings mouse (100 mg/kg oral), 0; in the data set with Frings mouse (300 mg/kg oral), 2^a. Also, the “Number Showing Toxicity of Eight Mice Tested at 120 minutes” value in the data set on Frings mouse (30 mg/kg oral), in the data set with Frings mouse (100 mg/kg oral) and in the data set with Frings mouse (300 mg/kg oral) was 0 in each case. In the data set on Frings mouse (Table 5 footnote, 300 mg/kg oral, 30 minutes), the “signs of toxicity in the animals counted as toxic” value is recorded as “^ano definitive signs of toxicity such as sedation or ataxia, animals just fell off”. Moreover, the “Number Protected of Four Mice Tested at 30 minutes” value in data set [1] (Table 5, 30 mg/kg oral) is on record as 0; in data set [1] (Table 5, 100 mg/kg oral), 1; in data set [1] (Table 5, 300 mg/kg oral), 4. In addition, the “Number Protected of Four Mice Tested at 120 minutes” value was found to be 0 in data set [1] (Table 5, 30 mg/kg oral); 0 in data set [1] (Table 5, 100 mg/kg oral); 1 in data set [1] (Table 5, 300 mg/kg oral). The “anticonvulsant activity when administered orally” value in data set [1] is reported as “displayed anticonvulsant activity when administered orally”.

For the molecule `CN1C(=O)CN=C(c2ccccc2)c2cc(Cl)ccc21` [Diazepam, diazepam], in the data set on rat (setting [4]), the “Drop-Off Time % change from control” value was −59%, the “Drop-Off Time (sec) Mean ± S.E.M.” value was 55.8 ± 20.6^d sec and the “Number of Rats Falling” value was found to be 9. Also, in the data set with rat (setting [5]), the “Drop-Off Time % change from control” value was −88%, the “Drop-Off Time (sec) Mean ± S.E.M.” value is 16.3 ± 6.4^f sec and the “Number of Rats Falling” value is 10+ ^e. Further, the “rotarod performance in the rat” value with rat (i.p. 60 minutes before test, isovaleramide 128, 256 and 512 mg/kg) is “dose-dependently decreased rotarod performance”.

As to `CC(C)CC(=O)O` [Isovaleric acid, isovaleric acid], the anticonvulsant activity entry in data set [2] is “inactive as an anticonvulsant”.

Take `CCN(CC)C(=O)CC(C)C` [N,N-Diethyl isovaleramide]: the CNS properties result in data set [3] is on record as “CNS stimulant (convulsant) properties”.

Turning to `CC(C)CC(=O)NCC(N)=O` [N-(2-acetamido)isovaleramide], the “Number Showing Toxicity of Four Mice Tested at 30 minutes” value is 0 in the data set on Frings mouse (30 mg/kg oral), 0 in the data set with Frings mouse (100 mg/kg oral), 0 with Frings mouse (300 mg/kg oral) and 1 in the data set on Frings mouse (1000 mg/kg oral). The “Number Showing Toxicity of Four Mice Tested at 120 minutes” value in the data set with Frings mouse (30 mg/kg oral), in the data set with Frings mouse (100 mg/kg oral), in the data set with Frings mouse (300 mg/kg oral) and with Frings mouse (1000 mg/kg oral) was 0 throughout. Further, the “Number Protected of Four Mice Tested at 30 minutes” value amounted to 0 in data set [1] (Table 4, 30 mg/kg oral); 0 in data set [1] (Table 4, 100 mg/kg oral); 0 in data set [1] (Table 4, 300 mg/kg oral); 3 in data set [1] (Table 4, 1000 mg/kg oral). In addition, the “Number Protected of Four Mice Tested at 120 minutes” value in data set [1] (Table 4, 30 mg/kg oral) turned out to be 0; in data set [1] (Table 4, 100 mg/kg oral) it was 0; in data set [1] (Table 4, 300 mg/kg oral), 0; in data set [1] (Table 4, 1000 mg/kg oral), 4. Moreover, the “anticonvulsant activity when administered orally” value in data set [1] was “displayed anticonvulsant activity when administered orally”.

The record behind these values is US7265155B2 (NBS Pharmaceuticals, Inc., priority 1996, dated 2007).
